Results as given in the supplement of paper PMC10307832.

How the values were obtained:
Experiment in all cases: relative viability (nuclei count vs DMSO), 5 days (fraction); higher = more cells survive
[1] = compound: C1=CC2=NC=CN=C2C=C1/C=C/3\C(=O)NC(=O)S3 + CC(C)C[C@H](NC(=O)[C@H](Cc1ccccc1)NC(=O)c1cnccn1)B(O)O [Bortezomib] (partner 0.002 µM)
Method in brief: (§1)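 Five library-drug doses in √10 steps were combined with a fixed anchor-drug dose, or a single drug was given alone, by pin tool to lung cancer cell lines in 1536-well plates the day after seeding. Nuclei were stained and counted after 5 days. Relative viability is the nuclei count in treated wells over that in vehicle wells, taken as the median of duplicate plates.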

[2] = compound: C1=CC2=NC=CN=C2C=C1/C=C/3\C(=O)NC(=O)S3 + CC1(C)CCC(c2ccc(Cl)cc2)=C(CN2CCN(c3ccc(C(=O)NS(=O)(=O)c4ccc(N[C@H](CCN5CCOCC5)CSc5ccccc5)c(S(=O)(=O)C(F)(F)F)c4)cc3)CC2)C1 [Navitoclax] (partner 0.5 µM)
Method in brief: as §1

[3] = compound: C1=CC2=NC=CN=C2C=C1/C=C/3\C(=O)NC(=O)S3 + Nc1nc2[nH]cc(CCc3ccc(C(=O)N[C@@H](CCC(=O)O)C(=O)O)cc3)c2c(=O)[nH]1 [Pemetrexed] (partner 0.2 µM)
Method in brief: as §1

BGJ398 + Phenformin = compound: CCN1CCN(c2ccc(Nc3cc(N(C)C(=O)Nc4c(Cl)c(OC)cc(OC)c4Cl)ncn3)cc2)CC1 [BGJ398] + N=C(N)NC(=N)NCCc1ccccc1 [Phenformin] (partner 250 µM)
Method in brief: as §1

| Cell Line | relative viability ([1]; first compound 0.02 µM) | relative viability ([1]; first compound 0.06325 µM) | relative viability ([1]; first compound 0.2 µM) | relative viability ([1]; first compound 0.6325 µM) | relative viability ([1]; first compound 2 µM) | relative viability ([2]; first compound 0.02 µM) | relative viability ([2]; first compound 0.06325 µM) | relative viability ([2]; first compound 0.2 µM) | relative viability ([2]; first compound 0.6325 µM) | relative viability ([2]; first compound 2 µM) | relative viability ([3]; first compound 0.02 µM) | relative viability ([3]; first compound 0.06325 µM) | relative viability ([3]; first compound 0.2 µM) | relative viability ([3]; first compound 0.6325 µM) | relative viability ([3]; first compound 2 µM) | relative viability (BGJ398 + Phenformin; first compound 0.01 µM) | relative viability (BGJ398 + Phenformin; first compound 0.03162 µM) | relative viability (BGJ398 + Phenformin; first compound 0.1 µM) | relative viability (BGJ398 + Phenformin; first compound 0.3162 µM) | relative viability (BGJ398 + Phenformin; first compound 1 µM) |
| --- | --- | --- | --- | --- | --- | --- | --- | --- | --- | --- | --- | --- | --- | --- | --- | --- | --- | --- | --- | --- |
| HCC-15 | 1.01 | 0.995 | 1.04 | 0.99 | 0.966 | 0.662 | 0.655 | 0.746 | 0.679 | 0.682 | 0.231 | 0.217 | 0.234 | 0.231 | 0.218 | 0.439 | 0.497 | 0.504 | 0.475 | 0.496 |
| HCC-44 | 0.818 | 0.958 | 0.869 | 0.883 | 0.71 | 0.969 | 1.02 | 0.946 | 1.02 | 0.892 | 0.578 | 0.688 | 0.667 | 0.675 | 0.655 | 0.213 | 0.349 | 0.193 | 0.195 | 0.161 |
| HCC-78 | 0.497 | 0.378 | 0.588 | 0.346 | 0.275 | 0.667 | 0.641 | 0.741 | 0.733 | 0.767 | 0.925 | 0.864 | 0.932 | 0.838 | 0.927 | 0.67 | 0.609 | 0.735 | 0.731 | 0.607 |
| HCC-366 | 1 | 1.02 | 1.05 | 1.06 | 1.01 | 1.1 | 0.776 | 1.1 | 1.1 | 0.897 | 0.117 | – | 0.163 | 0.164 | 0.21 | 0.632 | 0.672 | 0.6 | 0.613 | 0.673 |
| HCC-827 | 0.981 | 0.912 | 1 | 1.05 | 0.973 | 0.999 | 1.01 | 1.03 | 1.08 | 1.03 | 0.246 | 0.265 | 0.266 | 0.268 | 0.274 | 0.323 | – | 0.432 | 0.317 | 0.413 |
| HOP-62 | 0.908 | 0.819 | 1.07 | 0.757 | 0.707 | 0.974 | 1.15 | 1.13 | 1.06 | 0.931 | 0.319 | 0.368 | 0.299 | 0.355 | 0.307 | 0.649 | 0.704 | 0.737 | 0.604 | 0.773 |
| LC-2-ad | 0.964 | 1.02 | 1.09 | 0.943 | 0.829 | 0.441 | 0.455 | 0.461 | 0.378 | 0.397 | 0.292 | 0.286 | 0.276 | 0.283 | 0.279 | 0.58 | 0.604 | 0.655 | 0.573 | 0.503 |
| LCLC-97TM1 | 0.624 | 0.515 | 0.573 | 0.776 | 0.125 | 0.483 | 0.339 | 0.483 | 0.425 | 0.379 | 0.138 | 0.199 | 0.187 | 0.152 | 0.152 | 0.393 | 0.446 | 0.442 | 0.429 | 0.44 |
| LOU-NH91 | 0.415 | 0.517 | 0.512 | 0.562 | 0.513 | 0.686 | 0.659 | 0.685 | 0.641 | 0.657 | 0.376 | 0.326 | 0.391 | 0.399 | 0.407 | 0.676 | – | 0.712 | 0.455 | 0.474 |
| LU99A | 1.09 | 1.32 | 1.41 | 1.07 | 0.747 | 0.77 | 0.993 | 0.746 | 0.876 | 0.64 | 0.167 | 0.131 | 0.165 | 0.176 | 0.166 | 0.937 | 0.934 | 0.925 | 0.765 | 0.765 |
| LXF-289 | 0.977 | 0.985 | 1.05 | 0.941 | 1.02 | 0.92 | 0.918 | 0.898 | 0.917 | 0.932 | 0.841 | 0.823 | 0.789 | 0.908 | 0.899 | 0.536 | 0.509 | 0.542 | 0.473 | 0.502 |
| NCI-H23 | 0.954 | 1.37 | 1.27 | 0.843 | 0.678 | 0.714 | 1.18 | 0.828 | 0.868 | 0.635 | 0.605 | 0.79 | 0.636 | 0.6 | 0.578 | 0.688 | 0.904 | 0.811 | 0.761 | 0.756 |
| NCI-H322M | 1.18 | 1.1 | 1.26 | 1.19 | 0.973 | 1.05 | 1.12 | 1.35 | 1.11 | 1.16 | 0.622 | 0.631 | 0.646 | 0.618 | 0.506 | 0.791 | 0.663 | 0.774 | 0.696 | 0.845 |
| NCI-H441 | 0.272 | 0.289 | – | 0.403 | 0.494 | 0.523 | 0.562 | – | 0.771 | 0.553 | 0.25 | 0.276 | 0.307 | 0.229 | 0.253 | 0.793 | 0.642 | 0.848 | 0.879 | 1.01 |
| NCI-H460 | 1.01 | 1.05 | 1.03 | 0.932 | 0.942 | 1.03 | 1.24 | 1.19 | 1.02 | 1.11 | 0.0621 | 0.0629 | 0.071 | 0.058 | 0.0661 | 0.491 | 0.565 | 0.622 | 0.472 | 0.465 |
| NCI-H520 | 0.793 | 0.632 | 0.538 | 0.489 | 0.657 | 1.15 | 1.49 | 1.08 | 1.04 | 1.01 | 0.684 | 0.726 | 0.71 | 0.783 | 0.711 | 0.532 | 0.481 | 0.379 | 0.189 | 0.242 |
| NCI-H596 | 1.36 | 1.06 | 1.17 | 0.876 | – | 0.902 | 0.96 | 0.977 | 0.883 | 0.951 | 0.498 | 0.541 | 0.543 | 0.533 | 0.483 | 0.597 | 0.724 | 0.842 | 0.722 | 0.66 |
| NCI-H647 | 1.1 | 1.16 | 1.11 | 0.72 | 0.951 | 0.945 | 1.36 | 1.08 | 1.14 | 1.25 | 0.162 | 0.19 | 0.168 | 0.178 | 0.182 | 0.454 | 0.514 | 0.498 | 0.455 | 0.411 |
| NCI-H838 | 0.711 | 0.908 | 0.878 | 0.595 | 0.684 | 1.1 | 1.32 | 1.13 | 1.02 | 1.11 | 0.247 | 0.272 | 0.25 | 0.238 | 0.197 | 0.446 | 0.549 | 0.612 | 0.437 | 0.305 |
| NCI-H1355 | 1.02 | 1.23 | 1.18 | 1.2 | 1.05 | 0.87 | 1.01 | 1.05 | 1.03 | 0.951 | 0.944 | 1.07 | 1.1 | 1 | 0.939 | 0.44 | 0.465 | 0.454 | 0.464 | 0.423 |
| NCI-H1437 | 0.475 | 0.647 | 0.564 | 0.475 | 0.408 | 1.03 | 1.1 | 1.12 | 1.07 | 0.93 | 0.345 | 0.291 | 0.293 | 0.289 | 0.265 | 0.265 | 0.34 | 0.314 | 0.268 | 0.281 |
| NCI-H1650 | 0.207 | 0.173 | 0.219 | 0.201 | 0.213 | 1.23 | 1.3 | 1.14 | 1.14 | 1.3 | 0.376 | 0.381 | 0.319 | 0.357 | 0.394 | 0.369 | – | 0.399 | 0.187 | 0.365 |
| NCI-H1651 | 0.956 | 0.637 | 0.949 | 0.96 | 0.893 | 0.989 | 1.03 | 0.915 | 0.981 | 1.08 | 0.53 | 0.474 | 0.582 | 0.589 | 0.518 | 0.303 | 0.394 | 0.381 | 0.325 | 0.274 |
| NCI-H1666 | 0.834 | 0.854 | 1.06 | 0.649 | 0.673 | 0.9 | 0.954 | 0.913 | 0.989 | 0.919 | 0.898 | 0.548 | 0.838 | 0.96 | 0.759 | 0.55 | 0.609 | 0.622 | 0.581 | 0.557 |
| NCI-H1734 | 0.761 | – | 1 | 0.919 | 0.747 | 0.799 | – | 0.897 | 0.78 | 0.877 | 0.384 | – | 0.427 | 0.436 | 0.362 | 0.368 | 0.398 | 0.408 | 0.376 | 0.432 |
| NCI-H1755 | 0.927 | 1.05 | 0.961 | 0.917 | 0.859 | 0.881 | 0.947 | 1.03 | 0.975 | 0.936 | 0.394 | 0.404 | 0.465 | 0.428 | 0.444 | 0.533 | 0.669 | 0.618 | 0.656 | 0.601 |
| NCI-H1792 | 0.863 | 0.734 | 0.928 | 0.952 | 0.688 | 0.597 | 0.621 | 0.564 | 0.658 | 0.401 | 0.755 | – | 0.756 | 0.831 | 0.47 | 0.288 | 0.233 | 0.259 | 0.315 | 0.262 |
